Results as given in patent publication US20250213529A1, “5-METHOXY-N.N-[…][…] THE TREATMENT OF PSYCHOMOTOR RETARDATION” (GH RESEARCH IRELAND LIMITED, priority 2022, published 2025).

Legend:
[1] = Pharmacokinetics of 5-MeO-DMT and bufotenine after inhalation; assay type: in vivo, human; conditions: after 3 hours, 6, 12, 18 mg
[2] = test system: patients with postpartum depression (PPD); experiment: Clinical trial in patients with postpartum depression; conditions: PPD patient (n=1); for Total MADRS improvement / Total MADRS score: baseline 29; for BPRS Tension improvement: baseline 6
Protocol: The single-arm, open-label clinical trial will involve 15 adult female patients with clinically diagnosed postpartum depression (PPD).
The second dose (12 mg) will only be administered if: • a. […] The 6 mg dose was safe and well-tolerated according to the investigator, • c. Any psychoactive effects (PsE) of the prior dose have subsided, and • d. Pre-dose vital parameters and forced expiratory volume in one second (FEV1) are in normal range, or if outside of the normal range, are not clinically significant according to the investigator. • 3. Similarly, a third dose (18 mg) will only be administered if: • a. […] The 12 mg dose was safe and well-tolerated according to the investigator, and • c. Any PsE of the prior dose have subsided, and • d. Pre-dose vital parameters and forced expiratory volume in one second (FEV1) are in normal range, or if outside of the normal range, are not clinically significant according to the investigator.
The patients will be assessed for a peak psychedelic experience (based on a patient-scored visual analogue scale, the PE scale), sedation, and other endpoints after dosing. Follow-up visits are planned for Day 1, and Day 7 after the dosing day.
The following criteria must be met by all patients considered for clinical trial participation: • 1. Is female and in the age range between 18 and 45 years (inclusive) at screening. • 2. Has a body mass index (BMI) in the range of 18.5 and 35 kg/m^2 (inclusive) at screening. • 3. Meets the trial criteria for PPD as assessed by a trial psychiatrist or registered psychologist: • a. Diagnosis of Major Depressive Disorder without psychotic features, confirmed by the Mini-International Neuropsychiatric Interview (MINI), with peri-partum onset that began no earlier than gestation and no later than the first 4 weeks postpartum. • b. Has a Montgomery-Åsberg Depression Rating Scale (MADRS) total score of equal to or greater than 28 at screening and pre-dose on Day 0. • 6. […] Patients must have a negative pregnancy test at screening and on the pre-test day (Day −1). • 5. Is willing to delay start of other antidepressant or anxiety medication until after the end of the trial at Day 7 and agrees to keep any psychotherapy unchanged during the trial.
A potential patient who meets any of the following key exclusion criteria will be excluded from participation in this trial: • 1. Has, based on history, psychiatric assessment, and evaluation of the MINI, a current or prior diagnosis of bipolar disorder, a manic or hypomanic episode, a psychotic disorder, Major Depressive Disorder (MDD) or other mood disorder with psychotic features, obsessive compulsive disorder, post-traumatic stress disorder (PTSD), autism spectrum disorder, borderline personality disorder, schizophrenia, delusional disorder, paranoid personality disorder, schizoaffective disorder, clinically significant intellectual disability, or any other psychiatric comorbidity that renders the patient unsuitable for the trial according to the investigator's judgment. • 2. Has one or more first or second degree relatives with a current or previously diagnosed bipolar disorder, psychotic disorder or other mood disorder (including MDD) with psychotic features. • 3. Is in the judgement of a trial psychiatrist or registered psychologist, at significant risk for suicide based on history, psychiatric assessment, and evaluation of suicidal ideation and suicidal behaviour based on the Columbia-Suicide Severity Rating Scale (C-SSRS). • 4. Has taken anti-depressive medication within 14 days or 5 half-lives (whichever is longer) prior to dosing (exception: within the last 5 weeks in the case of fluoxetine). • 5.

[3] = test system: Escherichia coli (WP2 uvrA pKM101); experiment: Bacterial mutation test, Escherichia coli; assay type: cell-based; conditions: up to 5000 pg/plate; absence and presence of rat liver S-9
Description: (§1) These conditions included treatments at concentrations up to […] (the maximum recommended concentration according to current regulatory guidelines), in the absence and in the presence of a rat liver metabolic activation system (S-9).

[4] = test system: Salmonella typhimurium (TA98, TA100, TA1535 and TA1537); experiment: Bacterial mutation test, Salmonella typhimurium; assay type: cell-based; conditions: up to 5000 µg/plate; absence and presence of rat liver S-9
Description: as §1

[5] = IDR 6 then 12 mg inhaled, Day 0 score 5
[6] = IDR 6 then 12 mg inhaled, Day 0 score 6
[7] = IDR 6 then 12 mg inhaled, Day 1
[8] = IDR 6 then 12 mg inhaled, Day 7, Day 0 score 5
[9] = IDR 6 then 12 mg inhaled, Day 7, Day 0 score 6
[10] = IDR 6 then 12 mg inhaled, Day 7
[11] = IDR 6 then 12 mg inhaled, Day 7 vs Day 0

COc1ccc2[nH]cc(CCN(C)C)c2c1 [5-MeO-DMT]
Detectability in plasma [1]: no longer detectable
Tolerability of the inhalation procedure [2]: well tolerated with no inhalation-related adverse events
Reported adverse events (cramping left abdominal pain and headache) ([2]; Day 0): mild, short-lasting and resolved spontaneously
BIMF total score improvement, percent ([2]; Day 7, from 92 to 105): 14%
ECG, safety laboratory analyses, CADSS ([2]; ECG 3 hours, laboratory 7 days, CADSS 3 hours, 1 day, 7 days): unremarkable
MADRS remission (MADRS total score equal or less than 10) ([2]; IDR 6 then 12 mg inhaled): fulfilled
MADRS response (at least 50% improvement from baseline) ([2]; IDR 6 then 12 mg inhaled): fulfilled
Onset of clinical response after administration ([2]; IDR 6 then 12 mg inhaled): ≤ 2 h
Time to clinical remission after administration ([2]; IDR 6 then 12 mg inhaled): ≤ 2 h
Durability of clinical response ([2]; IDR 6 then 12 mg inhaled, given once): sustained over the 7-day follow-up period
Total MADRS improvement ([2]; IDR 6 then 12 mg inhaled, 2 hr): 24
Total MADRS score ([2]; IDR 6 then 12 mg inhaled, 2 hr): 5
BIMF item 19 (As time goes on, I am getting better at taking care of my baby) Δ (Day 7) ([2]; IDR 6 then 12 mg inhaled, Day 0 score 0): 1
BIMF item 13 (I am taking good care of my physical needs) Δ (Day 7) ([2]; IDR 6 then 12 mg inhaled, Day 0 score 4): 1
BIMF item 5 (I am able to relax and enjoy time with my baby) Δ (Day 7) [2, 5]: 1
BIMF item 9 (I am getting enough encouragement from other people) Δ (Day 7) [2, 5]: 1
BIMF item 10 (I trust my own feelings (instincts) when it comes to taking care of my baby) Δ (Day 7) [2, 5]: 1
BIMF item 11 (I take a little time each week to do something for myself) Δ (Day 7) [2, 5]: 1
BIMF item 17 (I am able to take care of my baby and my other responsibilities) Δ (Day 7) [2, 5]: 0
BIMF item 3 (I am comfortable with the way I've chosen to feed my baby) Δ (Day 7) [2, 6]: 0
BIMF item 6 (There are people in my life that I can trust to care for my baby when I need a break) Δ (Day 7) [2, 6]: 0
BIMF item 8 (I am getting enough adult interaction) Δ (Day 7) [2, 6]: 0
BIMF item 12 (I am taking good care of my baby's physical needs) Δ (Day 7) [2, 6]: 0
BIMF item 14 (I make good decisions about my baby's health and well being) Δ (Day 7) [2, 6]: 0
BIMF item 20 (I am satisfied with the job I am doing as a new mother) Δ (Day 7) [2, 6]: −1
BIMF TOTAL Δ (Day 7) ([2]; IDR 6 then 12 mg inhaled, Day 0 score 92): 13
BPRS Tension improvement [2, 7]: 5
Total MADRS improvement [2, 7]: 29
Total MADRS score [2, 7]: 0
BIMF item 19 (As time goes on, I am getting better at taking care of my baby) score ([2]; IDR 6 then 12 mg inhaled, Day 7, Day 0 score 0): 1
BIMF item 16 (I worry about how other people judge me (as a mother)) score ([2]; IDR 6 then 12 mg inhaled, Day 7, Day 0 score 3): 5
BIMF item 13 (I am taking good care of my physical needs) score ([2]; IDR 6 then 12 mg inhaled, Day 7, Day 0 score 4): 5
BIMF item 5 (I am able to relax and enjoy time with my baby) score [2, 8]: 6
BIMF item 9 (I am getting enough encouragement from other people) score [2, 8]: 6
BIMF item 10 (I trust my own feelings (instincts) when it comes to taking care of my baby) score [2, 8]: 6
BIMF item 11 (I take a little time each week to do something for myself) score [2, 8]: 6
BIMF item 17 (I am able to take care of my baby and my other responsibilities) score [2, 8]: 5
BIMF functional domain Adjustment score ([2]; IDR 6 then 12 mg inhaled, Day 7, Day 0 score 5, maximum 12): 6
BIMF item 3 (I am comfortable with the way I've chosen to feed my baby) score [2, 9]: 6
BIMF item 6 (There are people in my life that I can trust to care for my baby when I need a break) score [2, 9]: 6
BIMF item 8 (I am getting enough adult interaction) score [2, 9]: 6
BIMF item 12 (I am taking good care of my baby's physical needs) score [2, 9]: 6
BIMF item 14 (I make good decisions about my baby's health and well being) score [2, 9]: 6
BIMF item 20 (I am satisfied with the job I am doing as a new mother) score [2, 9]: 5
BIMF functional domain Self Care score ([2]; IDR 6 then 12 mg inhaled, Day 7, Day 0 score 9, maximum 18): 13
BIMF functional domain Infant Care score ([2]; IDR 6 then 12 mg inhaled, Day 7, Day 0 score 12, maximum 12): 12
BIMF functional domain Mother-Child Interaction score ([2]; IDR 6 then 12 mg inhaled, Day 7, Day 0 score 15, maximum 18): 17
BIMF functional domain Social Support score ([2]; IDR 6 then 12 mg inhaled, Day 7, Day 0 score 17, maximum 18): 18
BIMF functional domain Management score ([2]; IDR 6 then 12 mg inhaled, Day 7, Day 0 score 28, maximum 36): 33
BIMF functional domain Psychological Well-being score ([2]; IDR 6 then 12 mg inhaled, Day 7, Day 0 score 44, maximum 60): 53
Total MADRS improvement [2, 10]: 28
Total MADRS score [2, 10]: 1
BIMF functional domain Adjustment % Improvement [2, 11]: 20.00%
BIMF functional domain Infant Care % Improvement [2, 11]: 0.00%
BIMF functional domain Management % Improvement [2, 11]: 18%
BIMF functional domain Self Care % Improvement [2, 11]: 44%
BPRS Tension improvement ([2]; IDR 6 then 12 mg inhaled, Discharge): 5
PES score (intensity of the psychedelic experience) ([2]; nominal dose of 6 mg inhaled): 17.3
Changes in vital parameters ([2]; shortly after administration): temporary, clinically non-relevant increase in heart rate and blood pressure
PES score (intensity of the psychedelic experience) ([2]; subsequent dose of 12 mg inhaled): 85.7
Induction of mutation [3]: did not induce mutation
Induction of mutation [4]: did not induce mutation
